{"source": "PubChem BioAssay (NCI)", "note": "“And” between values parts separate entries of the source, which are not always exact repeats. Equal values may be shown once.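 Cells were grown in 96-well plates and exposed to each compound for 48 hours at five concentrations; endpoints were interpolated linearly between bracketing concentrations, or set to the highest concentration if not reached. GI50 marks 50% less growth. TGI is the concentration that stops growth completely.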"}
{"tested_on": "HOP-92 NSCLC", "assay": "DTP human tumour cell line panel, 48 h"}
{"compound": "COC([CH2][Hg][n]1cnc2c1c(=O)n(C)c(=O)n2C)CN1C(=O)c2ccccc2S1(=O)=O", "note": "(centres undefined)", "GI50": "> 100 µM", "TGI": "> 100 µM"}
{"compound": "CN1CCCCC1CCN1c2ccccc2Sc2ccc(Cl)cc21", "note": "(centres undefined)", "GI50": "1.35 µM", "TGI": "5.18 µM"}
{"compound": "C=C(C)C(OC)C(O)CC1(C)CC(O)CC(C)(C2CCC3OC(C4(C)CCC(Br)C(C)(C)O4)CCC3(C)O2)O1", "note": "(centres undefined)", "GI50": "15.8 µM", "TGI": "34 µM"}
{"compound": "COc1cc2c(cc1OCCCCN1CCN(CC(=O)Nc3ccc(Cl)cc3C(=O)c3ccccc3Cl)CC1)N=CC1CCCN1C2=O", "note": "(centres undefined)", "GI50": "0.0982 µM", "TGI": "0.298 µM"}
{"compound": "O=C(CCc1nc(=S)[nH][nH]1)Nc1ccc(Cl)c(Cl)c1", "TGI": "> 100 µM"}
{"compound": "O=C(Nc1ccccc1)c1c(O)[nH]c(=S)[nH]c1=O", "TGI": "45.1 µM"}
{"compound": "OC1CSSC1Cn1cnc2c(Nc3ccc(OCc4cccc(F)c4)c(Cl)c3)ncnc21", "note": "(centres undefined)", "GI50": "8.97 µM", "TGI": "23 µM"}
{"compound": "C=CCOc1ccc2c(C)cc(=O)oc2c1C", "TGI": "> 100 µM"}
{"compound": "Nc1c(C(=O)c2cccc(CCS(N)(=O)=O)c2)cnn1-c1ccc(F)cc1", "GI50": "> 25 µM", "TGI": "> 25 µM"}
{"compound": "COc1cc2cc(OC)c3cc4c(cc3c2c(OC)c1OC)OCO4", "TGI": "> 93.3 µM"}
{"compound": "CCCCCCCCCCCCCC(=O)OC(/C=C/C(C)C)C(O)C(O)C(OC)C(=O)NC1CCCCN(C)C1=O", "note": "(centres undefined)", "GI50": "> 49 µM", "TGI": "> 49 µM"}
{"compound": "C[C@@H](Oc1cc(-n2cnc3ccc(CN4CCN(C)CC4)cc32)sc1C(N)=O)c1ccccc1C(F)(F)F", "GI50": "0.0342 µM and 0.191 µM", "TGI": "0.947 µM and > 3.14 µM"}
{"compound": "CCN(CC)CCSc1c2ccccc2nc2cc(NCC(=O)Nc3ccccc3-c3ccccc3NC(=O)CNc3ccc4c(SCCN(CC)CC)c5ccccc5nc4c3)ccc12", "TGI": "> 100 µM"}
{"compound": "O=C(CCNC12CC3CC(CC(C3)C1)C2)c1ccccc1", "TGI": "64.2 µM"}
{"compound": "COc1cccc(-c2cc(-c3cccc(NS(C)(=O)=O)c3)nc(N)c2C#N)c1O", "GI50": "3.19 µM", "TGI": "> 31.5 µM"}
{"compound": "Cc1ccsc1C(=S)Nc1ccc(Cl)c(/C=N/OC(C)(C)C)c1", "TGI": "48.8 µM"}
{"compound": "NC(=O)NO.O.O.O.O.O.O.O.O.O.O.O.[Ge].[Ge].[Ge].[Ge].[Ge].[O]=[Ge].[O]=[Ge].[O]=[Ge].[O]=[Ge].[O]=[Ge][OH]", "TGI": "> 100 µM"}
{"compound": "CN(C)C(=S)N=C(Nc1ccccc1)Nc1ccccc1", "TGI": "> 100 µM"}
{"compound": "NC(N)=NS(=O)(=O)c1ccc(Nc2c3ccccc3nc3c(C(=O)NCCO)cccc23)cc1", "TGI": "0.747 µM"}
{"compound": "COc1cccc(C2c3cc4c(cc3OC(C)(N3CCCC3)C2C)OCO4)c1O", "note": "(centres undefined)", "TGI": "71.4 µM"}
{"compound": "O=C1NC(=NCCc2cccc(F)c2)S/C1=C\\c1ccc2ncccc2c1", "GI50": "> 25 µM", "TGI": "> 25 µM"}
{"compound": "COc1cc(/C=N\\NC(=O)CN2CCN(c3cc4c(cc3F)c(=O)c(C(=O)N/N=C/c3cc(OC)c(OC)c(OC)c3)cn4C3CC3)CC2)cc(OC)c1OC", "GI50": "0.198 µM", "TGI": "0.674 µM"}
{"compound": "O=C(O)CCC(NC(=O)c1ccc(Nc2nc3ccccc3nc2-c2cccs2)cc1)C(=O)O", "note": "(centres undefined)", "TGI": "> 100 µM"}
{"compound": "Cc1ccc(NC(=O)Nc2ccc(-c3cccnc3)cc2N2CCC(CO)CC2)cc1", "GI50": "2.5 µM", "TGI": "6.42 µM"}
{"tested_on": "UO-31 renal", "assay": "DTP human tumour cell line panel, 48 h", "units": {"GI50": "µM", "TGI": "µM"}}
{"compound": "CN(C)c1ccc(/C=C\\C2=[N+](C)c3ccccc3C2(C)C)cc1", "GI50": 3.74, "TGI": "> 100"}
{"compound": "COc1cc2c(c3oc4c(O)cccc4c(=O)c13)CC(C(C)(O)CO)O2", "note": "(centres undefined)", "TGI": "> 100"}
{"compound": "CC(=O)OC1OC([C@@H]2c3cccc(O)c3C(=O)c3c(O)cc(C)cc32)C(O)C(O)C1O", "note": "(some centres undefined)", "GI50": 0.0419, "TGI": 1.11}
{"compound": "C[N+](C)(C)CC(=O)N/N=C(/CC(=O)CC(C1=C(O)c2ccccc2OC1)c1ccccc1)C(=O)Nc1cccc(Cl)c1", "note": "(centres undefined)", "TGI": "> 100"}
{"compound": "O=C1/C(=C/c2ccc(O)c(O)c2)CCC/C1=C\\c1ccc(O)c(O)c1", "TGI": 4.34}
{"compound": "COC(=O)/C=C1\\S/C(=N\\NC(=O)c2cc3ccc2/C=C\\c2ccc(cc2)/C=C\\3)N(c2ccccc2)C1=O", "GI50": 1.53, "TGI": 3.08}
{"compound": "COC([CH2][Hg][n]1cnc2c1c(=O)n(C)c(=O)n2C)CN1C(=O)c2ccccc2S1(=O)=O", "note": "(centres undefined)", "GI50": "> 100", "TGI": "> 100"}
{"compound": "CN1CCCCC1CCN1c2ccccc2Sc2ccc(Cl)cc21", "note": "(centres undefined)", "GI50": 2.92, "TGI": 12.7}
{"compound": "C=C(C)C(OC)C(O)CC1(C)CC(O)CC(C)(C2CCC3OC(C4(C)CCC(Br)C(C)(C)O4)CCC3(C)O2)O1", "note": "(centres undefined)", "GI50": 15.7, "TGI": 34.4}
{"compound": "COc1cc2c(cc1OCCCCN1CCN(CC(=O)Nc3ccc(Cl)cc3C(=O)c3ccccc3Cl)CC1)N=CC1CCCN1C2=O", "note": "(centres undefined)", "GI50": 0.267, "TGI": 0.817}
{"compound": "O=C(CCc1nc(=S)[nH][nH]1)Nc1ccc(Cl)c(Cl)c1", "TGI": "> 100"}
